# Laboratory results as given in patent publication US5620955A, “Bombesin receptor antagonists and uses thereof” (Peptide Technologies Corporation, priority 1993, dated 1997).
# Read-outs that look alike come from different tables or passages of the source. Non-standard residues stand in square brackets, D forms with d. Residues, ends and D or L forms follow the SMILES beside them. *: point of attachment. BrAc = O=C(CBr)*
# How the values were obtained:
# BBN receptor [1] = target: T1, BBN receptor (Homo sapiens, UniProt P30550); assay: Inhibition of [125I]Tyr4-BBN binding to SCLC NCI-H345 membranes; details: for inhibition of BBN binding to SCLC membranes (in words): radiolabelled Tyr4-BBN
# T1 construct: endogenous in cells; host or cells: NCI-H345 (human SCLC)
# T1 sequence (P30550 whole entry): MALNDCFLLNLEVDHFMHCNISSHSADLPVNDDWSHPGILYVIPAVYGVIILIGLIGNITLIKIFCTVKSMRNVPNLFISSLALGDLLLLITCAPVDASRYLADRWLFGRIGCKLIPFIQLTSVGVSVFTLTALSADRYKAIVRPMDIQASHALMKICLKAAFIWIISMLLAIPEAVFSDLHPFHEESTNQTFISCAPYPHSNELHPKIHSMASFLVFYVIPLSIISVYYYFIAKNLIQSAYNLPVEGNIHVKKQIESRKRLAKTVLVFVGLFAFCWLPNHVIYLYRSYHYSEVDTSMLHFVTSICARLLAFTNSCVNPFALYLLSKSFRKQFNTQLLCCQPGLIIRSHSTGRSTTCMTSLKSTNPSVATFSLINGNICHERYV
# Method: (§1) Acinar cells from rat pancreas bind BBN and secrete amylase when treated with BBN. The ability of potential antagonists to bind to rat pancreatic acinar cells was examined by determining the ability of the compounds to inhibit the binding of radiolabelled BBN. […] Finally, antagonist activity of the compounds was determined by measuring the ability of compounds to prevent the release of amylase from cells in response to BBN. […] This cell line was also used to evaluate biological activities of potential antagonists derived from the structures of BBN and GRP. The binding of synthetic compounds to cellular membranes prepared from NCI-H345 was determined. The ability of potential antagonists to block the BBN-stimulated increase in cytosolic levels of Ca^++ was determined. Compounds showing inhibition were further tested to determine the effect on growth of two human SCLC cell lines in culture.
# Potential antagonists were also evaluated for their ability to inhibit the binding of radiolabelled Tyr^4 -BBN to SCLC membranes and for their effects on BBN signal transduction in SCLC cells.
# BBN receptor [2] = target: T1, BBN receptor; assay: Cytosolic Ca++ assay in SCLC cell line NCI-H345; format: cell-based; design: key: antagonized (A); had no effect (--) on the ability of 10 nM BBN to; details: compound 10 μM; 10 nM BBN elevation of cytosolic Ca++
# Method: SCLC cell line NCI-H345 was cultured for two days in medium containing 10^-8 M hydrocortisone, 5 μg/ml bovine insulin, 10 μg/ml human transferrin, 10^-8 M β-estradiol and 3×10^-8 M Na2 SeO3. The cells were harvested and washed, resuspended in medium containing 20 mM HEPES, pH 7.4, and loaded with 5 μM Fura 2 AM (Calbiochem) for 30 minutes. The cells were centrifuged at 150×g for 10 minutes to remove extracellular dye and resuspended and placed in a spectrofluorometer cell equipped with stirring and 37° C. heating. The emission was read at 510 nm with 340 excitation (Moody et al., Biochem. Biophys. Res. Commun. 147:189 (1987)). The response of compounds at 5 μM was measured initially as a screen and compared to that of 10 nM BBN. The response of varying concentrations of peptide (nM to μM) in the presence of 10 nM BBN was determined.
# NCI-H345 [3] = assay: Clonagenic assay, colony formation of NCI-H345; format: cell-based, human; design: key to Growth: significantly reduced (R); had no effect (--) on th; details: for reversal of colony inhibition by BBN (in words): 1 μM antagonist, 10 nM BBN added, both cell lines; for colony formation (in words): NCI-H345, 1 μM; for colony formation: NCI-H345, antagonist 1 μM plus BBN 10 nM; for Growth: compound 1 μM, clonal growth of a human tumor cell line
# Method: The effect of 1 to 1000 nM concentration of peptides on growth of NCI-H345 colonies stimulated by 10 nM BBN was measured in the agarose cloning system (Mahoud et al., Cancer Res. 51:1798 (1991); Staley et al., Peptides 12:145-149 (1991)). […] On the day of the assay, cells were harvested, centrifuged and suspended in the buffer. The agarose cloning system consisted of 3 ml of 0.5% agarose in SIT medium with 5% fetal bovine serum in six well plates. To a top layer, consisting of 3 ml HITES medium in 0.3% agarose, the peptides at two times concentration and 6×10^4 single viable cells, were added. For each peptide concentration, triplicate wells were plated. After two weeks, 1 ml of 0.1% p-iodo-nitrotetrazolium violet was added, and after 16 hours at 37° C., the plates were screened for colony formation; the number of colonies larger than […] in diameter were counted using a Bausch and Lomb Omnicon image analysis system.
# NCI-H720 = assay: Clonagenic assay, colony formation of NCI-H720; format: cell-based, human; details: for colony formation: NCI-H720; for colony formation (in words): second SCLC line (NCI-H270 in the text, NCI-H720 in Table 4), 1 μM
# Method: On the day of the assay, cells were harvested, centrifuged and suspended in the buffer. The agarose cloning system consisted of 3 ml of 0.5% agarose in SIT medium with 5% fetal bovine serum in six well plates. To a top layer, consisting of 3 ml HITES medium in 0.3% agarose, the peptides at two times concentration and 6×10^4 single viable cells, were added. For each peptide concentration, triplicate wells were plated. After two weeks, 1 ml of 0.1% p-iodo-nitrotetrazolium violet was added, and after 16 hours at 37° C., the plates were screened for colony formation; the number of colonies larger than […] in diameter were counted using a Bausch and Lomb Omnicon image analysis system.
# NCI-H345 [4] = assay: Clonagenic assay, colony formation of NCI-H345; format: cell-based, human; details: antagonist 1 μM alone, mean ± S.E. of 3
# BBN receptor [5] = target: T2, BBN receptor (Rattus norvegicus, UniProt P52500); assay: Stimulation of amylase release from rat pancreatic acinar cells by the compound alone (agonist test); format: cell-based
# T2 sequence (P52500 whole entry): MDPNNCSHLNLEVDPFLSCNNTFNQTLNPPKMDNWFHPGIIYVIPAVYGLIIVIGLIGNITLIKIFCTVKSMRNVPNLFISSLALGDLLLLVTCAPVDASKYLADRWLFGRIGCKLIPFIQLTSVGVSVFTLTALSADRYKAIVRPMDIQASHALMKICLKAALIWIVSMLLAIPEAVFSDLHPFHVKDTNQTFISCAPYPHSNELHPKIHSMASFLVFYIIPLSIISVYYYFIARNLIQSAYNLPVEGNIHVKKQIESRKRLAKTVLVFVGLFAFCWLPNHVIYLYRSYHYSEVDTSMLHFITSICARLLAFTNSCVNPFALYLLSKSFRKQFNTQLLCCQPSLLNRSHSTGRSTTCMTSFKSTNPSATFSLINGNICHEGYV
# BBN receptor [6] = target: T2, BBN receptor; assay: Inhibition of bombesin-stimulated amylase release from rat pancreatic acini; format: cell-based; details: half-maximal inhibition of bombesin-stimulated amylase release from acini; mean ± s.e.m.
# Method: as §1
# The incubation solution contained 1% albumin and the wash solution contained 0.2% albumin. The solution was equilibrated with 100% O2. Dispersed acini were suspended in 20 ml of solution. Samples of 1 ml were incubated in the presence of various concentrations of compounds in the presence of 1 nM bombesin. After the first incubation the samples were washed 4 times with wash solution at 4° C. The acini were then resuspended in fresh incubation buffer and incubated at 37° C. Amylase release was measured by the Phadebas reagent. Amylase secretion during a given incubation was expressed as the percentage of amylase present in the acini at the beginning of that incubation that was released into the extracellular medium.
# BBN receptor [7] = target: T2, BBN receptor; assay: Inhibition of 125I bombesin binding to rat pancreatic acinar cells
# Method: Inhibition of equilibrium binding of ^125 I labeled bombesin to acinar membranes by the compounds was determined. The Kd was determined by dividing IC50 (the concentration of synthetic compound required to inhibit 50% of the specific binding of labelled BBN) by the concentration of radiolabeled peptide.
# bombesin receptor = details: inhibits growth with moderate potency; literature value; cited from earlier work
# [8] = antagonist 1 μM alone, mean ± S.E. of 3
Compound,IC50 (BBN receptor [1]),inhibition of BBN binding to SCLC membranes (in words) (BBN receptor [1]),Ca++ effect (BBN receptor [2]),reversal of colony inhibition by BBN (in words) (NCI-H345 [3]),colony formation (in words) (NCI-H345 [3]),colony formation (NCI-H345 [3]),Growth (NCI-H345 [3]),colony formation (NCI-H720; [8]),colony formation (NCI-H720; antagonist 1 μM plus BBN 10 nM),colony formation (in words) (NCI-H720),colony formation (NCI-H345 [4]),EC50 (BBN receptor [5]),IC50 (BBN receptor [6]),"Kd (BBN receptor [7]; inhibition of 125I bombesin binding, IC50 divided by radioligand concentration)",binding to rat pancreatic acinar cells (in words) (BBN receptor [7]; inhibition of radiolabelled BBN binding),"IC50 (BBN receptor [1]; 50% inhibition of specific [125I]Tyr4-BBN binding, NCI-H345, read-out: IC50)",Ki (bombesin receptor)
CCOC(=O)[C@H](CC(C)C)NC(=O)[C@H](Cc1c[nH]cn1)NC(=O)[C@@H](C)NC(=O)[C@@H](NC(=O)[C@H](C)NC(=O)[C@H](Cc1c[nH]c2ccccc12)NC(=O)[C@H](CCC(N)=O)NC(=O)[C@H](CC(N)=O)NC(=O)CBr)C(C)C [PTC 816] (BrAc-NQWAV[dA]HL-OEt),0.055 µM,potent inhibitors of BBN binding,A,can be reversed,reduce the amount of colony formation,52 ± 3 Colony per mm^2,R,37 ± 6 Colony per mm^2,66 ± 8 Colony per mm^2,reduce the amount of colony formation,27 ± 4 Colony per mm^2,,,,,,
CCOC(=O)[C@H](CC(C)C)NC(=O)[C@H](Cc1c[nH]cn1)NC(=O)[C@@H](C)NC(=O)[C@@H](NC(=O)[C@H](C)NC(=O)[C@H](Cc1c[nH]c2ccccc12)NC(=O)[C@H](Cc1c[nH]cn1)NC(C)=O)C(C)C [PTC 818] (Ac-HWAV[dA]HL-OEt),,potent inhibitors of BBN binding,A,can be reversed,reduce the amount of colony formation,57 ± 6 Colony per mm^2,R,36 ± 4 Colony per mm^2,62 ± 7 Colony per mm^2,reduce the amount of colony formation,20 ± 5 Colony per mm^2,> 3 µM,0.0049 ± 0.0001 µM,0.0081 ± 0.0018 µM,did bind to the cells,0.025 µM,
"[Psi^13,14, Leu^14 ]BBN",,,,,,,,,,,,,,,,,0.03 µM
